Data as given in patent publication US20150272928A1, “INDOLE DERIVATIVES” (UNIVERSITY OF CENTRAL LANCASHIRE, priority 2012, published 2015).
“Also recorded” adds a separate entry of the source.

Legend:
1321N1 cells [1] = experiment: MTS assay, 1321N1 glioma cell line; type: cell-based; details: 48 h; for activity against the 1321N1 cell line (in words): MTS assay
Method: (§1) 1321N1 cells were maintained in Dulbeccos's Modified Eagle's Medium (DMEM) supplemented with 10% (v/v) foetal bovine serum (FBS) and 2 mM L-glutamine, while the U87MG cell line was maintained in Essential Minimum Eagle Medium (EMEM) supplemented with 10% (v/v) FBS, 2 mM L-glutamine, 1 mM sodium pyruvate and 1% (v/v) non-essential amino acids (NEAA) (Lonza, UK) in a 37° C. humidified incubator supplied with 5% CO2. The 1321N1 and the U87MG cells were trypsinized and cultured overnight at a cell density of 3500 cells/200 μl and 4000 cells/200 μl respectively in 96-well microtitre plates (Sarstedt, UK). The following day when the cells looked 50-60% confluent, each concentration of the commercial drugs and novel compounds mentioned above were added in quadruplicates and left for incubation for 48 hours. After 48 hours, 20 μl of the pre-warmed MTS reagent (Promega, UK) was added to each of the wells and the 96-well plates were incubated at 37° C. humidified incubator supplied with 5% CO2 for 60 min. At the end of 60 min, the absorbance was recorded at 490 nm using a Tecan GENios Pro® microplate reader. The concentration of compound that inhibits 50% of cell growth (IC50) compared to untreated vehicle controls containing ≦0.5% absolute ethanol was calculated by nonlinear regression analysis. Absolute ethanol was used in the vehicle controls as indole 4 was dissolved in absolute ethanol.

U87MG cells [2] = experiment: MTS assay, U87MG glioma cell line; type: cell-based
Method: as §1

U87MG cells [3] = experiment: Reactive oxygen species detection assay (carboxy-H2DCFDA, flow cytometry), U87MG cells; type: cell-based; details: 500 μM, 1 h, positive control TBHP 100 μM
Description: (§2) The inventors hypothesised that the active indoles were acting through a radical-based mechanism, which was most likely related to the generation of reactive oxygen species (ROS).^[6] As such, the inventors chose the Image-iT™ LIVE Green Reactive Oxygen Species Detection Kit from Invitrogen Ltd, UK, which is able to detect reactive oxygen species (ROS) in live cells, to assess selected indoles. Oxidatively stressed cells, when labeled with the carboxy-H2DCFDA dye provided, should generate fluorescence which is detectable using a confocal microscope and flow cytometry. Various assays were therefore performed in accordance with the following protocols.
(§3) 1321N1 cells were maintained in Dulbeccos's Modified Eagle's Medium (DMEM) supplemented with 10% (v/v) foetal bovine serum (FBS) and 2 mM L-glutamine, while the U87MG cell line was maintained in Essential Minimum Eagle Medium (EMEM) supplemented with 10% (v/v) FBS, 2 mM L-glutamine, 1 mM sodium pyruvate and 1% (v/v) non-essential amino acids (NEAA) (Lonza, UK) in a 37° C. humidified incubator supplied with 5% CO2. The 1321N1 and the U87MG cells were trypsinized and cultured overnight at a cell density of 10^4 cells/well/ml and were seeded in 6 well plates (BD Biosciences, UK) and were allowed to attach overnight. 2 ml of this cell suspension was added into each well resulting into a final concentration of 20,000 cells/well. On the day of experiment, cells were labelled with sufficient amount of 25 μM carboxy-H2DCFDA dye and were incubated for 30 min at 37° C., protected from light. Cells were then treated with 500 μM of indole 4 and positive control [tert-butyl hydroperoxide (TBHP)](100 μM) and negative control (indole 2) (500 μM) for 60 mins. Cells were gently washed with Hank[…]s balanced salt solution (HBSS) warm buffer three times and then trypsinized, centrifuged and resuspended in 300 μl PBS. Cells were filtered through cell strainer caps (35 μm mesh) to obtain a single cell suspension and analysed using a FACSAria flow cytometer (BD Biosciences). The untreated vehicle controls contained ≦0.5% absolute ethanol and DMSO as indole 4 was dissolved in absolute ethanol while TBHP and indole 2 were dissolved in DMSO.
(§4) In the event, to confirm and quantify the amount of fluorescence (due to ROS) produced, glioma cell lines 1321N1 and U87MG were seeded in separate 6 well plates and were left overnight to attach. On the day of the experiment the carboxy-H2DCFDA dye was added to the cells which were incubated for 30 min in the dark. Indoles 2, 3, 4 and 7 (500 μM) were then added, in separate experiments, and left for 1 h incubation. Cells were thoroughly washed at each step to prevent background staining and they were imaged immediately after incubation.

1321N1 cells [4] = experiment: Reactive oxygen species detection assay (carboxy-H2DCFDA, flow cytometry), 1321N1 cells; type: cell-based; details: for ROS induction / oxidative stress: shift of H2DCFDA fluorescence signal compared to control: 1321N1, 500 μM, 1 h, flow cytometry, positive control TBHP 100 μM
Description: as §2, §3, §4

[5] = Stability under acidic conditions; type: physicochemical
1321N1 cells [6] = experiment: MTS assay, 1321N1 glioma cell line; type: cell-based; details: 1321N1, co-treatment with ascorbic acid
1321N1 cells [7] = experiment: Acridine orange assay of acidic vesicular organelle (AVO) formation, 1321N1 cells; type: cell-based; details: 1321N1, 500 μM, 1 h, flow cytometry
Method: (§5) 1321N1 cells were maintained in Dulbeccos's Modified Eagle's Medium (DMEM) supplemented with 10% (v/v) foetal bovine serum (FBS) and 2 mM L-glutamine, while the U87MG cell line was maintained in Essential Minimum Eagle Medium (EMEM) supplemented with 10% (v/v) FBS, 2 mM L-glutamine, 1 mM sodium pyruvate and 1% (v/v) non-essential amino acids (NEAA) (Lonza, UK) in a 37° C. humidified incubator supplied with 5% CO2. The 1321N1 and the U87MG cells were trypsinized and cultured overnight at a cell density of 10^4 cells/well/ml and were seeded in 6 well plates (BD Biosciences, UK) and were allowed to attach overnight. 2 ml of this cell suspension was added into each well resulting into a final concentration of 20,000 cells/well. After 24 h of incubation, cells were treated with 500 μM of indole 4 for 60 min. After 60 min incubation with the compound the cells were stained with 3 μM acridine orange and incubated for 15 min at 37° C., protected from light. […] Cells were filtered through cell strainer caps (35 μm mesh) to obtain a single cell suspension and analysed using a FACSAria flow cytometer (BD Biosciences). […]
(§6) The glioma cells were seeded in 6 well plates and were left overnight to attach. The cells were then treated with indole 4 for 1 h, stained with acridine orange for 15 min, and were analysed by flow cytometry.

[8] = tested on: primary cell culture (IN859); experiment: IC50 against primary cell culture IN859 from a glioblastoma multiforme patient biopsy; type: cell-based; details: cells from a biopsy from a glioblastoma multiforme patient
Description: Based on these preliminary results the inventors were keen to discover if the effects would also be observed against a primary cell culture (IN859) from cells obtained from a biopsy from a glioblastoma multiforme patient.

U87MG cells [9] = experiment: Acridine orange assay of acidic vesicular organelle (AVO) formation, U87MG cells; type: cell-based; details: 500 μM, 1 h, flow cytometry
Method: as §5, §6

[10] = Homo sapiens, 1321-N1, average and standard deviation of four repeats, dash = IC50 value not reached
[11] = Homo sapiens, U-87 MG, 48 h, average and standard deviation of four repeats, dash = IC50 value not reached
[12] = average and standard deviation of four repeats, dash = IC50 value not reached
[13] = 48 h, average and standard deviation of four repeats, dash = IC50 value not reached

| Compound | IC50 (1321N1 cells [1]; [10]) [µM] | activity against the 1321N1 cell line (in words) (1321N1 cells [1]) | IC50 (U87MG cells [2]; [11]) [µM] | ROS induction / oxidative stress: shift of H2DCFDA fluorescence signal compared to control (U87MG cells [3]) | ROS induction / oxidative stress: shift of H2DCFDA fluorescence signal compared to control (1321N1 cells [4]) | other results |
| --- | --- | --- | --- | --- | --- | --- |
| OCc1c[nH]c2ccccc12 [Compound 1, (1H-indol-3-yl)methanol] | 374 ± 2 | active | 585 ± 2 | – | – | – |
| c1ccc(-c2cc3ccccc3[nH]2)cc1 [Compound 2, 2-phenyl-1H-indole] | – | not able to inhibit the growth | > 400 | no shift was observed | no shift was observed | MTS assay IC50 values 1321N1 (1321N1 cells [1]; [12]): does not reach its IC50; MTS assay IC50 values U87MG (U87MG cells [2]; [13]): does not reach its IC50; inhibition at 400 µM (U87MG cells [2]; Homo sapiens, U-87 MG, U87MG, at 400 μM, 48 h, read-out: maximum growth inhibition): 7% |
| OCc1c(-c2ccccc2)[nH]c2ccccc12 [Compound 3, (2-phenyl-1H-indol-3-yl)methanol] | 111 ± 1 | active | 176 ± 1 | shift of the fluorescence signal; also recorded: to a greater level than the positive control | shift of the fluorescence signal; also recorded: to a greater level than the positive control | stability under acidic conditions [5]: slightly unstable |
| Oc1ccccc1-c1cc2ccccc2[nH]1 [Compound 4, 2-(1H-indol-2-yl)phenol] | 445 ± 4 | active | 379 ± 4 | shift of the fluorescence signal; also recorded: to a greater level than the positive control | shift of the fluorescence signal; also recorded: to a greater level than the positive control | cell viability in the presence of ascorbic acid (1321N1 cells [6]): cell viability was unaffected; level of fluorescence (ROS) on co-treatment with ascorbic acid (1321N1 cells [4]; 1321N1, indole 4 500 μM plus ascorbic acid 100 μM, data not shown): less than the vehicle control cells alone; AVO formation (acridine orange red fluorescence) (1321N1 cells [7]): increased amount of red fluorescence; IC50 [8]: 398 ± 3 µM; AVO formation (acridine orange red fluorescence) (U87MG cells [9]): increased amount of red fluorescence; cell viability in the presence of ascorbic acid (U87MG cells [2]; MTS assay, U87MG, co-treatment with ascorbic acid): cell viability was unaffected |
| O=Cc1c(-c2ccccc2)[nH]c2ccccc12 [Compound 6, 2-phenyl-1H-indole-3-carbaldehyde] | – | inactive | – | – | – | activity against the U87MG cell line (in words) (U87MG cells [2]; MTS assay, 48 h): inactive |
| COc1ccccc1-c1cc2ccccc2[nH]1 [Compound 7, 2-(2-methoxyphenyl)-1H-indole, reference compound] | – | inactive | – | no shift was observed | no shift was observed | activity against the U87MG cell line (in words) (U87MG cells [2]; MTS assay, 48 h): inactive |
| N.N.[Cl][Pt][Cl] [cisplatin] | – | active | – | – | – | IC50 (1321N1 cells [1]; [12]): 11 ± 2 µM; IC50 (U87MG cells [2]; [13]): 310 ± 4 µM |
